Reference: patent publication US7271239B2, “D-isomers of antimicrobial peptide” (The Research Foundation of State University of New York, priority 2004, dated 2007)
Converted amounts (≈) assume the structure as drawn. Read-outs that look alike come from different tables or passages of the source. Where a SMILES comes first, the peptide text is derived from it. Where no end group is shown, it is not given here. [ ]: non-standard residue; d: D form.

Key:
S. gordonii Challis = assay: microbe, parasite or virus in culture; format: cell-based, Streptococcus gordonii; conditions: for MBC / MIC: Streptococcus gordonii
Text: (§1) The bacteria used in this study included Streptococcus mutans ATCC10449, Streptococcus mutans AU 159, Streptococcus mutans GS-5, Streptococcus mutans GS-5 mutant (^gtf BCD), Streptococcus gordonii Challis, Porphyromonas gingivalis W50, Porphyromonas gingivalis 381, A. actinomycetemcomitans NCTC 9710, Pseudomonas aeruginosa ATCC 17648, and Escherichia coli HB101. One quarter strength (25%) of brain heart infusion broth (BHI, DIFCO Laboratories, Detroit, Mich.) was used for the growth of S. mutans, S. gordonii, A. actinomycetemcomitans, Ps. aeruginosa, and E. coli. For growth of P. gingivalis, tryptic soy broth-yeast extract medium (TSBY, DIFCO Laboratories, Detroit, Mich.) supplemented with cysteine hydrochloride (0.05%), menadione (0.02 μg/ml), hemin (5 μg/ml), and potassium nitrate (0.02%) was used. All bacteria were cultured at 37° C.; Ps. aeruginosa and E. coli were grown aerobically, and the other bacteria, anaerobically. To prepare bacterial cell suspension for antibacterial activity assays, each overnight culture was harvested by centrifuge (3783 g, 10 min), washed once with 10 mM sodium phosphate-buffered saline (PBS, pH 7.2), resuspended in PBS and adjusted to a concentration of 1×10^6 cells/mL.
(§2) MICs of the peptides were determined by broth microdilution method as previously described (5). Briefly, two-fold serial dilutions of each peptide were prepared with 25% BHI medium at a volume of 200 μl per well in 96-well flat-bottom microtiter plates (Costar, Cambridge, Mass.). The final concentration of the peptides ranged from 0.78 to 100 μM, and chlorhexidine (CHX), used as a positive control, from 20 to 0.16 μM (10 to 0.078 μg/mL). The microtiter plate was inoculated with bacterial cell suspension with final concentration of 5×10^6 CFU/mL for P. gingivalis and 5×10^5 CFU/mL for the other bacterial species. After incubation at 37° C. for 48 h, the absorbance was measured at 595 nm by using a microplate reader (Model 3550, Bio-Rad, Japan) to assess the cell growth. […] The MIC value represents the median of at least three independent experiments. The minimal bactericidal concentration (MBC) was determined as follows. Aliquot (100 μl) of cell suspension was taken from two wells above MIC, centrifuged, and washed three times with PBS. Then each cell suspension was plated on TSBY agar plate, and bacterial cells were enumerated after incubation at 37° C. for 48 h. The MBC was defined as the lowest concentration of the peptide at which more than 99.9% of cells were killed compared to non-treated control.

[1] = system: A. actinomycetemcomitans NCTC 9710; assay: microbe, parasite or virus in culture; format: cell-based; conditions: for MBC / MIC: Aggregatibacter actinomycetemcomitans, NCTC9710
Text: as §1, §2

P. gingivalis = assay: microbe, parasite or virus in culture; format: cell-based, Porphyromonas gingivalis; conditions: for MBC / MIC: Porphyromonas gingivalis
Text: as §1, §2

S. mutans GS-5 biofilm = format: cell-based, Streptococcus mutans
Method: FIG. 11. Effect of peptides on the biofilm formation of S. mutans. The bacterial cells (5×10^5 cfu ml^−1) were inoculated in 96-well microtiter plate containing 25% BHIS medium with different concentration of each agent. Culture without agent was used as no treatment control. After incubation at 37° C. for 24 h, absorbance at 595 nm was recorded to assess the cell growth. Biofilm assay was performed by discarding the supernatants, washing with PBS, fixing with methanol, and staining with CV. The absorbance at 570 nm was recorded to assess the amount of biofilm. The activity was expressed as % of control. Data represents mean and SD of two independent tests with duplicates for each. Empty bar: growth, solid bar: biofilm.
The effect of the peptides on S. mutans in biofilm formation was examined by the microdilution method. This method is similar to the MIC assay for planktonic cells. Two-fold serial dilutions of each peptide were prepared in wells of polystyrene microtiter plates (Microtest tissue culture plate, 96 well, Falcon, Becton Dickinson and Company, N.J.) containing 25% BHI medium supplemented with 1% sucrose (BHIS) at a volume of 200 μl per well. The final concentration of the peptide ranged from 0.78 to 100 μM for each peptide. Chlorhexidine (CHX, 0.078 to 10 μg/mL) was used as the positive control, the medium without drug as the non-treated control, and the medium alone as the blank control. The cells suspension of S. mutans GS-5 was prepared as describe in MIC assay and 20 μl aliquot (final concentration of cells 5×10^5 CFU/mL) was inoculated to the wells of polystyrene microtiter plates. After incubation at 37° C. for 20 h, the culture supernatants from each well were decanted and planktonic cells were removed by washing with PBS, pH 7.2. The biofilm was fixed with methanol for 15 min and then air dried at room temperature. The biofilm was then stained with 0.1% (wt/vol) crystal violet (Sigma) for 5 min. and rinsed thoroughly with water until the control wells appeared colorless. Biofilm formation was quantified by the addition of 200 μl of 95% ethanol to each crystal violet-stained well. The plate was rocked at room temperature for 30 min and the absorbance at 595 nm (A595 nm) was determined with a microplate reader (BioRad Model 3550 Microplate Reader). Percentage of inhibition was calculated with the equation: (1−A595 nm of the test/A595nm of non-treated control)×100.

[2] = lowest concentration with 50% or more inhibition of biofilm formation
[3] = median of two strains (W 50, 381)

Compound | MBIC50 (S. mutans GS-5 biofilm) | MBIC50 (S. mutans GS-5 biofilm; [2]) | MBC (μM) (S. gordonii Challis) | MIC (μM) (S. gordonii Challis) | MBC (μM) ([1]; NCTC 9710) | MBC (μg/ml) ([1]; NCTC 9710) | MIC (μM) ([1]; NCTC 9710) | MIC (μg/ml) ([1]; NCTC 9710) | MIC (μM) (P. gingivalis) | MBIC50 (S. mutans GS-5 biofilm; GS-5 biofilm, 24 h) | MIC (μg/ml) (P. gingivalis) | MBC (μg/ml) (S. gordonii Challis) | MIC (μg/ml) (S. gordonii Challis) | also measured
[H]/N=C(\N/C(=N/[H])NCCCCCCNC(=N)NC(=N)Nc1ccc(Cl)cc1)Nc1ccc(Cl)cc1 [Chlorhexidine, Chlorhexidine digluconate] | 0.625 µg/mL | 1.25 µM | – | – | – | – | – | – | – | – | – | – | – | MBC (S. gordonii Challis; read-out: MBC): 4 µM; MBC (S. gordonii Challis; read-out: MBC (μg/ml)): 2 µg/mL; MIC (S. gordonii Challis; read-out: MIC): 2.5 µM; MIC (S. gordonii Challis; read-out: MIC (μg/ml)): 1.2 µg/mL; MBC ([1]; read-out: MBC): 20 µM; MBC ([1]; read-out: MBC (μg/ml)): 10.1 µg/mL; MIC ([1]; read-out: MIC): 20 µM; MIC ([1]; read-out: MIC (μg/ml)): 10.1 µg/mL; MBC (P. gingivalis; median of two strains (W 50, 381), read-out: MBC): 2.5 µM; MBC (P. gingivalis; median of two strains (W 50, 381), read-out: MBC (μg/ml)): 1.3 µg/mL; MIC (P. gingivalis; median of two strains (W 50, 381), read-out: MIC): 2.5 µM; MIC (P. gingivalis; median of two strains (W 50, 381), read-out: MIC (μg/ml)): 1.2 µg/mL
CC(C)C[C@@H](NC(=O)[C@@H](CS)NC(=O)[C@@H](CCCCN)NC(=O)[C@@H](Cc1ccc(O)cc1)NC(=O)[C@@H](CO)NC(=O)[C@@H](CCCCN)NC(=O)[C@H](N)CCCNC(=N)N)C(=O)N[C@H](Cc1c[nH]cn1)C(=O)N[C@H](CCCCN)C(=O)N[C@H](CCCNC(=N)N)C(=O)N[C@H](CS)C(=O)N[C@H](CCCNC(=N)N)C(=O)O [MUC7 12-mer-D] (H-[dR][dK][dS][dY][dK][dC][dL][dH][dK][dR][dC][dR]-OH; N-terminus and C-terminus assumed) | – | – | 100.0 µM (≈ 158 µg/mL) | 50.0 µM (≈ 78.9 µg/mL) | >100 µM | >158 µg/mL | >100 µM | >158 µg/mL | 50.0 µM (≈ 78.9 µg/mL) | 6.25 µM | – | – | – | MBC (μM) (P. gingivalis): 100.0 µM (≈ 158 µg/mL); MBC (μg/ml) (P. gingivalis): 79.0 µg/mL (≈ 50.1 µM)
CC(C)C[C@H](NC(=O)[C@H](CS)NC(=O)[C@H](CCCCN)NC(=O)[C@H](Cc1ccc(O)cc1)NC(=O)[C@H](CO)NC(=O)[C@H](CCCCN)NC(=O)[C@@H](N)CCCNC(=N)N)C(=O)N[C@@H](Cc1c[nH]cn1)C(=O)N[C@@H](CCCCN)C(=O)N[C@@H](CCCNC(=N)N)C(=O)N[C@@H](CS)C(=O)N[C@@H](CCCNC(=N)N)C(=O)O [MUC7 12-mer-L] (H-RKSYKCLHKRCR-OH; N-terminus and C-terminus assumed) | – | – | 100.0 µM (≈ 158 µg/mL) | 50.0 µM (≈ 78.9 µg/mL) | >100 µM | >158 µg/mL | >100 µM | >158 µg/mL | >100 µM | 12.5 µM | >158 µg/mL | – | – | –
AKRHHGYKRKFH [Hsn5 12-mer] | – | – | >100 µM | >100 µM | >100 µM | >158 µg/mL | >100 µM | >158 µg/mL | >100 µM | 25 µM | >158 µg/mL | >158 µg/mL | >158 µg/mL | –
GIGKFLHSAKKFGKAFVGEIMNS [Magainin-II] | 62 µg/mL | 25 µM | >50 µM | 50.0 µM | – | – | – | – | – | – | – | >123 µg/mL | 123.5 µg/mL | MBC (μM) [1]: 50.0 µM; MBC (μg/ml) [1]: 123.5 µg/mL; MIC (μM) [1]: 50.0 µM; MIC (μg/ml) [1]: 123.5 µg/mL; MIC (μM) (P. gingivalis; [3]): >100 µM; MIC (μg/ml) (P. gingivalis; [3]): >246.9 µg/mL
